# Experimental data reported in ChEMBL document CHEMBL1201862, “PubChem BioAssay data set” (2004).
#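 A five-concentration, 48-hour dose response in 96-well plates underlies each endpoint, interpolated linearly between surrounding concentrations. At the GI50, growth is halved.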 Active and inactive are the calls of the source. Rule as the data show it: active = GI50 up to about 1.1 µM and inactive = higher.
# Columns and labels:
# Assay in all cases: growth of human tumour cells (NCI), 48 h
# MOLT-4 = system: MOLT-4
# NCI/ADR-RES = system: NCI/ADR-RES
# SK-MEL-5 = system: SK-MEL-5
# NCI-H23 = system: NCI-H23
# ACHN = system: ACHN
# SW-620 = system: SW-620
# CAKI-1 = system: CAKI-1
# SNB-75 = system: SNB-75
# SK-MEL-28 = system: SK-MEL-28
# K562 = system: K562
# PC-3 = system: PC-3
# MDA-MB-435 = system: MDA-MB-435
# 786-0 = system: 786-0
# UO-31 = system: UO-31
# UACC-62 = system: UACC-62
# IGROV-1 = system: IGROV-1
# OVCAR-3 = system: OVCAR-3
# HCT-116 = system: HCT-116
# HCT-15 = system: HCT-15
# MCF7 = system: MCF7
# NCI-H226 = system: NCI-H226
# MDA-MB-231 = system: MDA-MB-231
# HOP-62 = system: HOP-62
# MDA-N = system: MDA-N
# A549 = system: A549
# Hs-578T = system: Hs-578T
# HL-60 = system: HL-60
# HCC 2998 = system: HCC 2998
# SK-MEL-2 = system: SK-MEL-2
# SF-268 = system: SF-268
# EKVX = system: EKVX
# NCI-H522 = system: NCI-H522
# NCI-H460 = system: NCI-H460
# BT-549 = system: BT-549
# T47D = system: T47D
# SK-OV-3 = system: SK-OV-3
# SR = system: SR
# U-251 = system: U-251
# OVCAR-5 = system: OVCAR-5
# A498 = system: A498
# COLO 205 = system: COLO 205
# Malme-3M = system: Malme-3M
# KM12 = system: KM12
# CCRF-CEM = system: CCRF-CEM
# SNB-19 = system: SNB-19
# SN12C = system: SN12C
# TK-10 = system: TK-10
# OVCAR-4 = system: OVCAR-4
# DU-145 = system: DU-145
# M14 = system: M14
# SF-539 = system: SF-539
# HOP-92 = system: HOP-92
# LOX IMVI = system: LOX IMVI
# SF-295 = system: SF-295
# HT-29 = system: HT-29
# RXF 393 = system: RXF 393
# UACC-257 = system: UACC-257
# OVCAR-8 = system: OVCAR-8
smiles,measurement,setting,value
CC1=C[C@@H]2[C@@H](CC(CO)=C[C@H]3[C@@H]4C(C)(C)[C@]4(OCC(C)C)[C@H](OCC(C)C)[C@@H](C)[C@]23O)C1=O,GI50,MOLT-4,0.646 µM (active)
same,GI50,NCI/ADR-RES,2.55 µM (inactive)
same,GI50,SK-MEL-5,1.11 µM (active)
same,GI50,NCI-H23,1.91 µM (inactive)
same,GI50,ACHN,1.23 µM (inactive)
same,GI50,SW-620,1.19 µM (inactive)
same,GI50,CAKI-1,1.38 µM (inactive)
same,GI50,SNB-75,2.97 µM (inactive)
same,GI50,SK-MEL-28,1.3 µM (inactive)
same,GI50,K562,0.137 µM (active)
same,GI50,PC-3,1.49 µM (inactive)
same,GI50,MDA-MB-435,0.426 µM (active)
same,GI50,786-0,1.47 µM (inactive)
same,GI50,UO-31,2.22 µM (inactive)
same,GI50,UACC-62,1.43 µM (inactive)
same,GI50,IGROV-1,2.01 µM (inactive)
same,GI50,OVCAR-3,2.17 µM (inactive)
same,GI50,HCT-116,2.04 µM (inactive)
same,GI50,HCT-15,1.42 µM
same,GI50,MCF7,2.56 µM (inactive)
same,GI50,NCI-H226,1.36 µM (inactive)
same,GI50,MDA-MB-231,1.39 µM (inactive)
same,GI50,HOP-62,0.206 µM (active)
same,GI50,MDA-N,0.649 µM (active)
same,GI50,A549,0.578 µM (active)
same,GI50,Hs-578T,0.9 µM (active)
same,GI50,HL-60,0.495 µM (active)
same,GI50,HCC 2998,0.574 µM (active)
same,GI50,SK-MEL-2,2.1 µM (inactive)
same,GI50,SF-268,3.43 µM (inactive)
same,GI50,EKVX,1.03 µM (active)
same,GI50,NCI-H522,2.2 µM (inactive)
same,GI50,NCI-H460,0.465 µM (active)
same,GI50,BT-549,1.14 µM (inactive)
same,GI50,T47D,2.16 µM (inactive)
same,GI50,SK-OV-3,> 8.32 µM (inactive)
same,GI50,SR,1.14 µM (inactive)
same,GI50,U-251,1.5 µM (inactive)
same,GI50,OVCAR-5,2.23 µM (inactive)
same,GI50,A498,1.08 µM (active)
same,GI50,COLO 205,0.243 µM (active)
same,GI50,Malme-3M,0.766 µM (active)
same,GI50,KM12,2.16 µM (inactive)
same,GI50,CCRF-CEM,0.741 µM (active)
same,GI50,SNB-19,> 6.01 µM (inactive)
same,GI50,SN12C,1.73 µM (inactive)
same,GI50,TK-10,1.82 µM (inactive)
same,GI50,OVCAR-4,4.28 µM (inactive)
same,GI50,DU-145,3.2 µM (inactive)
same,GI50,M14,1.51 µM (inactive)
same,GI50,SF-539,0.975 µM (active)
same,GI50,HOP-92,1.44 µM (inactive)
same,GI50,LOX IMVI,1.25 µM (inactive)
same,GI50,SF-295,0.92 µM (active)
same,GI50,HT-29,1.21 µM (inactive)
same,GI50,RXF 393,1.54 µM (inactive)
same,GI50,UACC-257,1.62 µM (inactive)
same,GI50,OVCAR-8,1.73 µM (inactive)
C=C1C[C@@H]2O[C@H]3[C@H]4[C@@H](C[C@@H](C)[C@@H](OC(C)=O)[C@H]42)[C@@H](C)CO[C@@]3(C)[C@H](OC(C)=O)C[C@H]1O,GI50,MOLT-4,53 µM (inactive)
same,GI50,NCI/ADR-RES,> 100 µM (inactive)
same,GI50,SK-MEL-5,> 100 µM (inactive)
same,GI50,NCI-H23,> 100 µM (inactive)
same,GI50,ACHN,> 100 µM (inactive)
same,GI50,SW-620,55.6 µM (inactive)
same,GI50,CAKI-1,> 100 µM (inactive)
same,GI50,SNB-75,84.3 µM (inactive)
same,GI50,SK-MEL-28,> 100 µM (inactive)
same,GI50,K562,25.7 µM (inactive)
same,GI50,PC-3,95.9 µM (inactive)
same,GI50,MDA-MB-435,33 µM (inactive)
same,GI50,786-0,> 100 µM (inactive)
same,GI50,UO-31,77.6 µM (inactive)
same,GI50,UACC-62,> 100 µM (inactive)
same,GI50,IGROV-1,> 100 µM (inactive)
same,GI50,OVCAR-3,65.2 µM (inactive)
same,GI50,HCT-116,> 100 µM (inactive)
same,GI50,HCT-15,> 100 µM
same,GI50,MCF7,84.5 µM (inactive)
same,GI50,NCI-H226,> 100 µM (inactive)
same,GI50,MDA-MB-231,> 100 µM (inactive)
same,GI50,MDA-N,40.5 µM (inactive)
same,GI50,A549,> 100 µM (inactive)
same,GI50,Hs-578T,> 100 µM (inactive)
same,GI50,HL-60,16.9 µM (inactive)
same,GI50,HCC 2998,> 100 µM (inactive)
same,GI50,SK-MEL-2,> 100 µM (inactive)
same,GI50,SF-268,> 100 µM (inactive)
same,GI50,EKVX,> 100 µM (inactive)
same,GI50,NCI-H522,48 µM (inactive)
same,GI50,NCI-H460,70.8 µM (inactive)
same,GI50,BT-549,63.4 µM (inactive)
same,GI50,T47D,> 100 µM (inactive)
same,GI50,SK-OV-3,> 100 µM (inactive)
same,GI50,SR,43 µM (inactive)
same,GI50,U-251,> 100 µM (inactive)
same,GI50,OVCAR-5,> 100 µM (inactive)
same,GI50,A498,> 100 µM (inactive)
same,GI50,COLO 205,88.1 µM (inactive)
same,GI50,Malme-3M,> 100 µM (inactive)
same,GI50,KM12,> 100 µM (inactive)
same,GI50,CCRF-CEM,25.9 µM (inactive)
same,GI50,SNB-19,> 100 µM (inactive)
same,GI50,SN12C,> 100 µM (inactive)
same,GI50,TK-10,> 100 µM (inactive)
same,GI50,OVCAR-4,> 100 µM (inactive)
same,GI50,DU-145,> 100 µM (inactive)
same,GI50,M14,> 100 µM (inactive)
same,GI50,SF-539,> 100 µM (inactive)
same,GI50,HOP-92,66.8 µM (inactive)
same,GI50,LOX IMVI,17.1 µM (inactive)
same,GI50,SF-295,> 100 µM (inactive)
same,GI50,HT-29,63.2 µM (inactive)
same,GI50,RXF 393,38.7 µM (inactive)
same,GI50,UACC-257,> 100 µM (inactive)
same,GI50,OVCAR-8,82.6 µM (inactive)
